Results: ChEMBL document CHEMBL1125688, “The synthesis and potassium channel blocking activity of some (4-methanesulfonamidophenoxy)propanolamines as potential class III antiarrhythmic agents” (1991)

Columns and labels:
Cavia porcellus [1] = species on record: Cavia porcellus; test: Compound was evaluated for the increase in duration or cardiac APD (action potential duration) at 90% repolarization, using isolated guinea pig ventricular myocytes at concentration of 10000 nM; format: functional, Heart, Ventricular myocyte; parameters: unit not given here
Cavia porcellus [2] = species on record: Cavia porcellus; test: Compound was evaluated for the increase in duration or cardiac APD (action potential duration) at 90% repolarization, using isolated guinea pig ventricular myocytes at concentration of 10000 nM; no detectable change; format: functional; details: Heart, Ventricular myocyte
Cavia porcellus [3] = species on record: Cavia porcellus; test: Compound was evaluated for the increase in duration or cardiac APD (action potential duration) at 90% repolarization, using isolated guinea pig ventricular myocytes at concentration of 33000 nM; format: functional, Heart, Ventricular myocyte
Cavia porcellus [4] = species on record: Cavia porcellus; test: Compound was evaluated for the increase in duration or cardiac APD (action potential duration) at 90% repolarization, using isolated guinea pig ventricular myocytes at concentration of 50000 nM; format: functional, Heart, Ventricular myocyte
Cavia porcellus [5] = species on record: Cavia porcellus; test: Compound was evaluated for the increase in duration or cardiac APD (action potential duration) at 90% repolarization, using isolated guinea pig ventricular myocytes at concentration of 10 nM; format: functional, Heart, Ventricular myocyte
Cavia porcellus [6] = species on record: Cavia porcellus; test: Compound was evaluated for the increase in duration or cardiac APD (action potential duration) at 90% repolarization, using isolated guinea pig ventricular myocytes at concentration of 1 nM; format: functional, Heart, Ventricular myocyte
Cavia porcellus [7] = species on record: Cavia porcellus; test: Compound was evaluated for the increase in duration or cardiac APD (action potential duration) at 90% repolarization, using isolated guinea pig ventricular myocytes at concentration of 100 nM; format: functional, Heart, Ventricular myocyte; parameters: unit not given here
Cavia porcellus [8] = species on record: Cavia porcellus; test: Compound was evaluated for the increase in duration or cardiac APD (action potential duration) at 90% repolarization, using isolated guinea pig ventricular myocytes at concentration of 1000 nM; format: functional, Heart, Ventricular myocyte; parameters: unit not given here
Cavia porcellus [9] = species on record: Cavia porcellus; test: Compound was evaluated for the increase in duration or cardiac APD (action potential duration) at 90% repolarization, using isolated guinea pig ventricular myocytes at concentration of 50 nM; format: functional, Heart, Ventricular myocyte
Cavia porcellus [10] = species on record: Cavia porcellus; test: Compound was evaluated for the increase in duration or cardiac APD (action potential duration) at 90% repolarization, using isolated guinea pig ventricular myocytes at concentration of 50000 nM; no detectable change; format: functional; details: Heart, Ventricular myocyte
Cavia porcellus [11] = species on record: Cavia porcellus; test: Compound was evaluated for the increase in duration or cardiac APD (action potential duration) at 90% repolarization, using isolated guinea pig ventricular myocytes at concentration of 250 nM; format: functional, Heart, Ventricular myocyte
Cavia porcellus [12] = species on record: Cavia porcellus; test: Compound was evaluated for the increase in duration or cardiac APD (action potential duration) at 90% repolarization, using isolated guinea pig ventricular myocytes at concentration of 33000 nM; No detectable change; format: functional; details: Heart, Ventricular myocyte
Cavia porcellus [13] = species on record: Cavia porcellus; test: Compound was evaluated for the increase in duration or cardiac APD (action potential duration) at 90% repolarization, using isolated guinea pig ventricular myocytes at concentration of 10000 nM; No detectable change; format: functional; details: Heart, Ventricular myocyte
Cavia porcellus [14] = species on record: Cavia porcellus; test: Compound was evaluated for the increase in duration or cardiac APD (action potential duration) at 90% repolarization, using isolated guinea pig ventricular myocytes at concentration of 75000 nM; format: functional, Heart, Ventricular myocyte
Cavia porcellus [15] = species on record: Cavia porcellus; test: Compound was evaluated for the increase in duration or cardiac APD (action potential duration) at 90% repolarization, using isolated guinea pig ventricular myocytes at concentration of 33000 nM; no detectable change; format: functional; details: Heart, Ventricular myocyte

SMILES: CS(=O)(=O)Nc1ccc(OCC(O)CNCCc2ccc(Cl)cc2)cc1 (stereo unspecified)
- Delta APD90 (Cavia porcellus [1]): 90

SMILES: CC(C)NCC(O)COc1ccc(NS(C)(=O)=O)cc1 (stereo unspecified)
- Delta APD90 (Cavia porcellus [2]): No detectable change
- Delta APD90 (Cavia porcellus [3]): 33

SMILES: CC(C)NCC(O)c1ccc(NS(C)(=O)=O)cc1 (stereo unspecified) [SOTALOL]
- Delta APD90 (Cavia porcellus [4]): 30
- Delta APD90 (Cavia porcellus [1]): 75

SMILES: CS(=O)(=O)Nc1ccc(OCC(O)CN2CCC(c3ccc(Cl)cc3)CC2)cc1 (stereo unspecified)
- Delta APD90 (Cavia porcellus [5]): 100
- Delta APD90 (Cavia porcellus [6]): 50

SMILES: CN(CCc1ccccc1)CC(O)COc1ccc(NS(C)(=O)=O)cc1 (stereo unspecified)
- Delta APD90 (Cavia porcellus [7]): 48
- Delta APD90 (Cavia porcellus [8]): 88

SMILES: CN(CCc1ccc(Cl)c(Cl)c1)CC(O)COc1ccc(NS(C)(=O)=O)cc1 (stereo unspecified)
- Delta APD90 (Cavia porcellus [5]): 42
- Delta APD90 (Cavia porcellus [7]): 85
- Delta APD90 (Cavia porcellus [6]): 20

SMILES: COc1ccc(CCN(CC(O)COc2ccc(NS(C)(=O)=O)cc2)C(C)C)cc1OC (stereo unspecified)
- Delta APD90 (Cavia porcellus [7]): 65
- Delta APD90 (Cavia porcellus [8]): 100

SMILES: CCN(CC)CC(O)COc1ccc(NS(C)(=O)=O)cc1 (stereo unspecified)
- Delta APD90 (Cavia porcellus [1]): 85
- Delta APD90 (Cavia porcellus [8]): 25

SMILES: CN(C/C=C/c1ccccc1)CC(O)COc1ccc(NS(C)(=O)=O)cc1 (stereo unspecified)
- Delta APD90 (Cavia porcellus [9]): 50
- Delta APD90 (Cavia porcellus [7]): 100

SMILES: CS(=O)(=O)Nc1ccc(OCC(O)CN2CCC(c3ccc(C(F)(F)F)cc3)CC2)cc1 (stereo unspecified)
- Delta APD90 (Cavia porcellus [5]): 100
- Delta APD90 (Cavia porcellus [9]): 100
- Delta APD90 (Cavia porcellus [6]): 40

SMILES: CNCC(O)COc1ccc(NS(C)(=O)=O)cc1 (stereo unspecified)
- Delta APD90 (Cavia porcellus [10]): No detectable change
- Delta APD90 (Cavia porcellus [2]): No detectable change

SMILES: CN(CCOc1ccc(NS(C)(=O)=O)cc1)CCc1ccc(NS(C)(=O)=O)cc1 [DOFETILIDE]
- Delta APD90 (Cavia porcellus [11]): 100
- Delta APD90 (Cavia porcellus [9]): 23
- Delta APD90 (Cavia porcellus [7]): 63

SMILES: CN(CCCc1ccccc1)CC(O)COc1ccc(NS(C)(=O)=O)cc1 (stereo unspecified)
- Delta APD90 (Cavia porcellus [7]): 70

SMILES: COc1ccc(CCN(C)CC(O)COc2ccc(NS(C)(=O)=O)cc2)cc1OC (stereo unspecified)
- Delta APD90 (Cavia porcellus [7]): 40
- Delta APD90 (Cavia porcellus [8]): 100

SMILES: CS(=O)(=O)Nc1ccc(OCC(O)CNCCc2ccccc2)cc1 (stereo unspecified)
- Delta APD90 (Cavia porcellus [1]): 80

SMILES: CS(=O)(=O)Nc1ccc(OCC(O)CN2CCC(c3ccccc3)CC2)cc1 (stereo unspecified)
- Delta APD90 (Cavia porcellus [7]): 48
- Delta APD90 (Cavia porcellus [8]): 100

SMILES: CS(=O)(=O)Nc1cccc(OCC(O)CN2CCC(c3ccccc3)CC2)c1 (stereo unspecified)
- Delta APD90 (Cavia porcellus [8]): 48

SMILES: CC(C)NCC(O)COc1ccc(N(C)S(C)(=O)=O)cc1 (stereo unspecified)
- Delta APD90 (Cavia porcellus [12]): No detectable change
- Delta APD90 (Cavia porcellus [13]): No detectable change

SMILES: CS(=O)(=O)Nc1ccc(OCC(O)CN2CCc3ccccc3C2)cc1 (stereo unspecified)
- Delta APD90 (Cavia porcellus [7]): 60

SMILES: CC(C)(C)NCC(O)COc1ccc(NS(C)(=O)=O)cc1 (stereo unspecified)
- Delta APD90 (Cavia porcellus [4]): 75
- Delta APD90 (Cavia porcellus [3]): 40
- Delta APD90 (Cavia porcellus [14]): 75

SMILES: COc1ccc(CCNCC(O)COc2ccc(NS(C)(=O)=O)cc2)cc1OC (stereo unspecified)
- Delta APD90 (Cavia porcellus [1]): 80
- Delta APD90 (Cavia porcellus [8]): 15

SMILES: O=C(O)c1ccc(OCC(O)CN2CCC(c3ccccc3)CC2)cc1 (stereo unspecified)
- Delta APD90 (Cavia porcellus [8]): 36

SMILES: CN(c1ccc(OCC(O)CNCCc2ccccc2)cc1)S(C)(=O)=O (stereo unspecified)
- Delta APD90 (Cavia porcellus [2]): No detectable change
- Delta APD90 (Cavia porcellus [15]): No detectable change

SMILES: CS(=O)(=O)Nc1ccc(OCC(O)CN2CCN(c3ccccc3)CC2)cc1 (stereo unspecified)
- Delta APD90 (Cavia porcellus [1]): 100
- Delta APD90 (Cavia porcellus [8]): 78
